Results reported in US20250320213A1, “Nitrogen-Containing Heterocyclic Compounds” (Pfizer Inc., priority 2024, published 2025).

Biological target: T1, STAT6 (Homo sapiens, UniProt P42226)
T1 construct: stably transfected HaCaT keratinocyte cell line, which expresses NanoLuc luciferase reporter gene under the transcriptional control of the STAT6 responsive promoter; endogenous in cells; host or cells: HaCaT keratinocyte reporter cell line (stably transfected with a NanoLuc reporter)
T1 sequence (P42226 1-847): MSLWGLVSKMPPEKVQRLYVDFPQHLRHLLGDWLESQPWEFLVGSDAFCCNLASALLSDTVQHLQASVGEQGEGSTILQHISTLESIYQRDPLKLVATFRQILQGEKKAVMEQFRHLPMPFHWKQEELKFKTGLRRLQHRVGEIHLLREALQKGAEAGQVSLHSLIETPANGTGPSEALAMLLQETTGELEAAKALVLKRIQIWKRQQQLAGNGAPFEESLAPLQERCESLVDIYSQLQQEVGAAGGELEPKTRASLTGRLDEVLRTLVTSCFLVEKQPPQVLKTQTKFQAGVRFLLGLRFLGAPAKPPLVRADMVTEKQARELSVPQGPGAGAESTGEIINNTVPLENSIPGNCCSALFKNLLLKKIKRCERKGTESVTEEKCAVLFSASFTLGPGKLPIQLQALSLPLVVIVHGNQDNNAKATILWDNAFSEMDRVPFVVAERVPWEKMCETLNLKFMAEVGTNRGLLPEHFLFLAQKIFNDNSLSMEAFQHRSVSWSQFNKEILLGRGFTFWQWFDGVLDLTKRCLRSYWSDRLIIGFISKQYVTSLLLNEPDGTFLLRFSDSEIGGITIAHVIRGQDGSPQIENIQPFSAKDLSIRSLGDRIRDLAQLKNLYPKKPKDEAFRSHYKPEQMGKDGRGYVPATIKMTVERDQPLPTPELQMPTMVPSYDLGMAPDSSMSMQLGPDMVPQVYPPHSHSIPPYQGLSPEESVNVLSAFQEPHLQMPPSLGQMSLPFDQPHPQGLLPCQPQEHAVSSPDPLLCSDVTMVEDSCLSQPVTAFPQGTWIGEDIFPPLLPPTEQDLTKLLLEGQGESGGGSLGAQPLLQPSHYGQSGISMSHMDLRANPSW
Experiment: STAT6 Reporter Luciferase Assay (IL-13 stimulated HaCaT keratinocyte NanoLuc reporter cells)
Format: cell-based
Conditions: IL-13 stimulated HaCaT STAT6 NanoLuc reporter cells; read-out: Reporter EC50
Procedure: Pharmacological measurements of STAT6 transcriptional activity through the IL-13-IL-13 receptor/IL-4 receptor pathway were made with a stably transfected HaCaT keratinocyte cell line, which expresses NanoLuc luciferase reporter gene under the transcriptional control of the STAT6 responsive promoter for IL-13Ra2. The readout of the STAT6 activity utilized Promega Nano-Glo Luciferase assay kit.
The reporter cells were cultured in a growth media comprised of DMEM High Glucose, no calcium and no glutamine, 10% heat inactivated fetal bovine serum (HI FBS), 1% 100× Glutamax, and 100 U/mL Penicillin-Streptomycin (units of penicillin in 1 mL of streptomycin). Seven thousand cells were plated in 25 microliter (μL) per well in a 384-well, white bottom, tissue culture plate. Cells were cultured overnight at 37° C. The next day, test compounds (solubilized and serially diluted in DMSO, in an 11 point, 4-fold dilution series in duplicate) were spotted, 60 nanoliters (nL) per well, into a 384 well v-bottom polypropylene plate. Thirty μL per well of 37° C. dosing media (Dulbecco's modified eagle medium (DMEM) High Glucose, no calcium and no glutamine with 2% HI FBS) was added to the compound plate. Growth media was removed from the cell plate, and the cells were washed with DPBS. Twenty μL per well of compounds diluted in dosing media were transferred from the compound plate to the cell plate and the compounds were further diluted with an additional 15 μL of dosing media in the cell plate: the cell plate was incubated for two hours at 37° C. After two hours, STAT6 activity was stimulated with the addition of 5 μL per well of IL-13 (R&D Systems) in dosing media with a final concentration of 0.12 nM IL13. Cells were incubated at 37° C. for 4 hours to allow for reporter gene expression, then all media was removed from the plate. The cell plates were treated with assay buffer and Luciferase substrate from Nano-Glo Luciferase Assay Kit for 15 min and then measured for luminescence on an EnVision 2105 multilabel reader (PerkinElmer).

Row | Structure (SMILES) | EC50
1 | CCC(=O)N1CCN(C(=O)c2ccc(N3CCc4c(c(C(=O)NCc5ccc(NC(=O)N(C)C)cc5)nn4C(C)C)C3)nc2)CC1 [Example 196, N-(4-(3,3-dimethylureido)benzyl)-1-isopropyl-5-(5-(4-propionylpiperazine-1-carbonyl)pyridin-2-yl)-4,5,6,7-tetrahydro-1H-pyrazolo[4,3-c]pyridine-3-carboxamide] | 0.09 µM
2 | CC(C)n1nc(C(=O)NCc2ccc(NC(=O)N(C)C)cc2)c2c1CCN(c1ccc(C(=O)N3CCC[C@H]3C(N)=O)cn1)C2 [Example 197, (S)-5-(5-(2-carbamoylpyrrolidine-1-carbonyl)pyridin-2-yl)-N-(4-(3,3-dimethylureido)benzyl)-1-isopropyl-4,5,6,7-tetrahydro-1H-pyrazolo[4,3-c]pyridine-3-carboxamide] | 0.197 µM
3 | COC1CCN(C(=O)c2ccc(N3CCc4c(c(C(=O)NCc5ccc(NC(=O)N(C)C)cc5)nn4C(C)C)C3)nc2)CC1 [Example 199, N-(4-(3,3-dimethylureido)benzyl)-1-isopropyl-5-(5-(4-methoxypiperidine-1-carbonyl)pyridin-2-yl)-4,5,6,7-tetrahydro-1H-pyrazolo[4,3-c]pyridine-3-carboxamide] | 0.125 µM
4 | CC(=O)N1CCCN(C(=O)c2ccc(N3CCc4c(c(C(=O)NCc5ccc(NC(=O)N(C)C)cc5)nn4C(C)C)C3)nc2)CC1 [Example 200, 5-(5-(4-acetyl-1,4-diazepane-1-carbonyl)pyridin-2-yl)-N-(4-(3,3-dimethylureido)benzyl)-1-isopropyl-4,5,6,7-tetrahydro-1H-pyrazolo[4,3-c]pyridine-3-carboxamide] | 0.363 µM
5 | CCO[C@H]1CCN(C(=O)c2ccc(N3CCc4c(c(C(=O)NCc5ccc(NC(=O)N(C)C)cc5)nn4C(C)C)C3)nc2)C1 [Example 201, (S)-N-(4-(3,3-dimethylureido)benzyl)-5-(5-(3-ethoxypyrrolidine-1-carbonyl)pyridin-2-yl)-1-isopropyl-4,5,6,7-tetrahydro-1H-pyrazolo[4,3-c]pyridine-3-carboxamide] | 0.343 µM
6 | COc1nc(N2CCc3c(c(C(=O)NCc4ccc(NC(=O)N(C)C)cc4)nn3C(C)C)C2)ccc1[C@]1(C)CNC(=O)C1 [Example 202, (R)-N-(4-(3,3-dimethylureido)benzyl)-1-isopropyl-5-(6-methoxy-5-(3-methyl-5-oxopyrrolidin-3-yl)pyridin-2-yl)-4,5,6,7-tetrahydro-1H-pyrazolo[4,3-c]pyridine-3-carboxamide] | 8.08 µM
7 | CC(C)n1nc(C(=O)NCc2ccc(NC(=O)N(C)C)cc2)c2c1CCN(c1ccc(C(=O)N3CCOCC3)cn1)C2 [Example 206, N-(4-(3,3-dimethylureido)benzyl)-1-isopropyl-5-(5-(morpholine-4-carbonyl)pyridin-2-yl)-4,5,6,7-tetrahydro-1H-pyrazolo[4,3-c]pyridine-3-carboxamide] | 0.097 µM
8 | CC(C)n1nc(C(=O)NCc2ccc(NC(=O)N(C)C)cc2)c2c1CCN(c1ccc(C(=O)N3C[C@@H](C)O[C@@H](C)C3)cn1)C2 [Example 207, 5-(5-((2R,6S)-2,6-dimethylmorpholine-4-carbonyl)pyridin-2-yl)-N-(4-(3,3-dimethylureido)benzyl)-1-isopropyl-4,5,6,7-tetrahydro-1H-pyrazolo[4,3-c]pyridine-3-carboxamide] | 0.272 µM
9 | COC[C@@H]1CCCN1C(=O)c1ccc(N2CCc3c(c(C(=O)NCc4ccc(NC(=O)N(C)C)cc4)nn3C(C)C)C2)nc1 [Example 209, (S)-N-(4-(3,3-dimethylureido)benzyl)-1-isopropyl-5-(5-(2-(methoxymethyl)pyrrolidine-1-carbonyl)pyridin-2-yl)-4,5,6,7-tetrahydro-1H-pyrazolo[4,3-c]pyridine-3-carboxamide] | 0.692 µM
10 | CC(C)n1nc(C(=O)NCc2ccc(NC(=O)N(C)C)cc2)c2c1CCN(c1ccc(C(=O)N3CC(C#N)C3)cn1)C2 [Example 210, 5-(5-(3-cyanoazetidine-1-carbonyl)pyridin-2-yl)-N-(4-(3,3-dimethylureido)benzyl)-1-isopropyl-4,5,6,7-tetrahydro-1H-pyrazolo[4,3-c]pyridine-3-carboxamide] | 1.06 µM
11 | CC(=O)N[C@@H]1CCN(C(=O)c2ccc(N3CCc4c(c(C(=O)NCc5ccc(NC(=O)N(C)C)cc5)nn4C(C)C)C3)nc2)C1 [Example 211, (R)-5-(5-(3-acetamidopyrrolidine-1-carbonyl)pyridin-2-yl)-N-(4-(3,3-dimethylureido)benzyl)-1-isopropyl-4,5,6,7-tetrahydro-1H-pyrazolo[4,3-c]pyridine-3-carboxamide] | 0.934 µM
12 | CC(C)n1nc(C(=O)NCc2ccc(NC(=O)N(C)C)cc2)c2c1CCN(c1ccc(C(=O)N3C[C@H]4C[C@@H](C3)O4)cn1)C2 [Example 212, 5-(5-((1R,5S)-6-oxa-3-azabicyclo[3.1.1]heptane-3-carbonyl)pyridin-2-yl)-N-(4-(3,3-dimethylureido)benzyl)-1-isopropyl-4,5,6,7-tetrahydro-1H-pyrazolo[4,3-c]pyridine-3-carboxamide] | 0.278 µM
13 | CCN(CC(=O)NC)C(=O)c1ccc(N2CCc3c(c(C(=O)NCc4ccc(NC(=O)N(C)C)cc4)nn3C(C)C)C2)nc1 [Example 213, N-(4-(3,3-dimethylureido)benzyl)-5-(5-(ethyl(2-(methylamino)-2-oxoethyl)carbamoyl)pyridin-2-yl)-1-isopropyl-4,5,6,7-tetrahydro-1H-pyrazolo[4,3-c]pyridine-3-carboxamide] | 0.718 µM
14 | CC(C)n1nc(C(=O)NCc2ccc(NC(=O)N(C)C)cc2)c2c1CCN(c1ccc(C(=O)N3CCNC(=O)CC3)cn1)C2 [Example 214, N-(4-(3,3-dimethylureido)benzyl)-1-isopropyl-5-(5-(5-oxo-1,4-diazepane-1-carbonyl)pyridin-2-yl)-4,5,6,7-tetrahydro-1H-pyrazolo[4,3-c]pyridine-3-carboxamide] | 0.502 µM
15 | CC(C)n1nc(C(=O)NCc2ccc(NC(=O)N(C)C)cc2)c2c1CCN(c1ccc(C(=O)N3CC(O)C3)cn1)C2 [Example 215, N-(4-(3,3-dimethylureido)benzyl)-5-(5-(3-hydroxyazetidine-1-carbonyl)pyridin-2-yl)-1-isopropyl-4,5,6,7-tetrahydro-1H-pyrazolo[4,3-c]pyridine-3-carboxamide] | 0.276 µM
16 | CO[C@@H]1CCN(C(=O)c2ccc(N3CCc4c(c(C(=O)NCc5ccc(NC(=O)N(C)C)cc5)nn4C(C)C)C3)nc2)C1 [Example 216, (R)-N-(4-(3,3-dimethylureido)benzyl)-1-isopropyl-5-(5-(3-methoxypyrrolidine-1-carbonyl)pyridin-2-yl)-4,5,6,7-tetrahydro-1H-pyrazolo[4,3-c]pyridine-3-carboxamide] | 0.546 µM
17 | CC(C)n1nc(C(=O)NCc2ccc(NC(=O)N(C)C)cc2)c2c1CCN(c1ccc(C(=O)N3CCNC(=O)C3(C)C)cn1)C2 [Example 217, 5-(5-(2,2-dimethyl-3-oxopiperazine-1-carbonyl)pyridin-2-yl)-N-(4-(3,3-dimethylureido)benzyl)-1-isopropyl-4,5,6,7-tetrahydro-1H-pyrazolo[4,3-c]pyridine-3-carboxamide] | 0.272 µM
18 | CC(C)n1nc(C(=O)NCc2ccc(NC(=O)N(C)C)cc2)c2c1CCN(c1ccc(C(=O)N3CCC[C@@H]3C(N)=O)cn1)C2 [Example 218, (R)-5-(5-(2-carbamoylpyrrolidine-1-carbonyl)pyridin-2-yl)-N-(4-(3,3-dimethylureido)benzyl)-1-isopropyl-4,5,6,7-tetrahydro-1H-pyrazolo[4,3-c]pyridine-3-carboxamide] | 2.38 µM
